Read-outs that look alike come from different tables or passages of the source.
What was measured:
RAW264.7 macrophages [1] = test: Foam cell formation, Oil Red O staining; format: cell-based, murine; details: n = 3; for effect of co-treatment on the protective (foam cell inhibiting) effect of ELA-11: ox-LDL 50 μg/ml 48 h + ELA-11, modulator 1 μM, vs ox-LDL + ELA-11 group
Description: To assess the impact of ELA-11 on foam cell formation, RAW264.7 macrophages were pretreated with ELA-11 (1 μM) for 2 h before being exposed to ox-LDL (50 μg/ml) for 48 h.
(§1) For foam cell formation assays, cells were seeded in 6-well plates at 1 × 10^6 cells/well. Cells were pretreated with ELA-11 (1 μM) for 2 h before exposure to oxidized low-density lipoprotein (ox-LDL, 50 or 100 μg/ml) for 48 h. Where indicated, cells were cotreated with tunicamycin (1 μM, ER stress activator), ML221 (1 μM, APJ receptor antagonist), Recilisib (1 μM, AKT activator), or 4-PBA (1 μM, ER stress inhibitor).
Cells were fixed with 4% paraformaldehyde for 30 min, rinsed with 60% isopropanol, and stained with Oil Red O working solution for 10 min. After washing with distilled water, stained cells were imaged using a light microscope. For quantification, staining intensity was analyzed using ImageJ software.

RAW264.7 macrophages [2] = test: CCK-8 cell viability assay; format: cell-based, murine
Description: Finally, the cytotoxicity of mPEG@ELA-11 was assessed using the CCK-8 assay. […] The absence of cytotoxicity is a critical factor for the potential clinical application of mPEG@ELA-11.
Cell viability was assessed using the CCK-8 kit (Biosharp, China) according to the manufacturer’s instructions. Cells were seeded in 96-well plates at 1 × 10^5 cells/ml and treated with various compounds for 24 to 72 h before analysis.

ApoE^-/- mice [3] = test: Biosafety evaluation in mice (histology, body weight, blood biochemistry); details: for histopathological changes in major organs (heart, liver, spleen, lungs, and kidneys): 1 mg/kg every 3 days; for tissue morphology of heart, liver, spleen, lungs, and kidneys (H&E), long-term toxicity: 1 mg/kg via the tail vein, once every 3 days for 2 consecutive months, n = 6; for changes in body weight: throughout the treatment period, n=6, p>0.05
Description: To evaluate the safety and biocompatibility of the treatments, histological analysis was performed on major organs (heart, liver, spleen, lungs, and kidneys) from all groups.
At the study endpoint, mice were euthanized under isoflurane anesthesia. Blood was collected for biochemical analysis, and the entire aorta was harvested from the ascending aorta to the iliac bifurcation.
Histological examination of the heart, liver, spleen, lungs, and kidneys in different treatments groups which were respectively injected with the same dose (1 mg/kg) of PBS, ELA-11, and mPEG@ELA-11 via the tail vein, once every 3 days for 2 consecutive months. […] Representative images were chosen from n = 6 mice per group.

AKT phosphorylation = test: Western blot of AKT phosphorylation; format: cell-based, murine; details: ox-LDL + ELA-11 + modulator (1 μM), n = 3
Description: as §1
(§2) Cells were lysed in RIPA buffer supplemented with protease and phosphatase inhibitors. Equal protein amounts were separated by 10% sodium dodecyl sulfate–polyacrylamide gel electrophoresis, followed by transfer to polyvinylidene fluoride membranes. Membranes were blocked with 5% milk and incubated overnight at 4 °C with primary antibodies against p-PERK, PERK, p-eIF2α, eIF2α, ATF4, CHOP, p-AKT, AKT, and GAPDH, followed by horseradish peroxidase-conjugated secondary antibodies. Protein bands were visualized using enhanced chemiluminescence reagents.

[4] = tested on: ER stress-associated proteins (p-PERK, p-eIF2α, CHOP, and ATF4); test: Western blot of ER stress markers; format: cell-based, murine; details: ox-LDL + ELA-11 + modulator (1 μM), n = 3
Description: as §1, §2

[5] = Nanoparticle size by DLS and TEM; format: physicochemical
Description: The slight difference between DLS and TEM measurements is expected, as DLS measures the hydrodynamic diameter in solution, while TEM visualizes dehydrated NPs.
(§3) NP characterization was performed using FT-IR, NMR, DLS, and TEM. pH-responsive drug release was evaluated at pH values of 5.5, 6.5, and 7.4. For fluorescence imaging, NPs were labeled with ICG, Cy5 or Cy5.5.

[6] = Colloidal stability in physiological media over 5 days; format: physicochemical; details: mean ± SD
Description: The colloidal stability of mPEG@ELA-11 was evaluated in various physiological media over a 5-day period. The hydrodynamic diameter remained stable in PBS, serum, and 1640 culture medium, with only minor increases observed over time (Fig. 5E). On day 1, the sizes in PBS, serum, and 1640 medium were 36 ± 2.12, 43 ± 3.01, and 44 ± 4.53 nm, respectively. By day 5, these had increased slightly to 42 ± 3.36, 49 ± 3.49, and 50 ± 2.98 nm, respectively.

ApoE^-/- mice [7] = test: Serum inflammatory markers and lipids in treated ApoE-/- mice; format: in vivo
Description: At the study endpoint, mice were euthanized under isoflurane anesthesia. Blood was collected for biochemical analysis, and the entire aorta was harvested from the ascending aorta to the iliac bifurcation. For en face analysis, aortas were stained with Oil Red O. The aortic root was sectioned for histological analysis, including Oil Red O, H&E, Masson’s trichrome, and immunofluorescence staining for CD31 and α-SMA.

[8] = pH-responsive in vitro release of ELA-11; format: physicochemical
Description: To assess the pH-responsive release behavior of mPEG@ELA-11, in vitro release studies were conducted. […] At 12 h post-injection, only 45% of Cy5-mPEG@ELA-11 was degraded, while 70% of Cy5-ELA-11 had already been degraded.
as §3

ApoE^-/- mice [9] = test: Atherosclerosis in ApoE-/- mice fed a high-fat diet; format: in vivo; details: HFD
Text: To evaluate the therapeutic efficacy of ELA-11 in AS, ApoE^-/- mice fed a high-fat diet (HFD) were utilized as an established AS model. Male ApoE^-/- mice were randomly allocated into 3 groups (n = 6 per group): a control group fed a normal chow diet (NCD), an HFD group treated with phosphate-buffered saline (HFD + PBS), and a treatment group treated with ELA-11 (HFD + ELA-11). ApoE^-/- mice were initiated on HFD at 8 weeks of age. Four weeks later, at the beginning of the fifth week of HFD feeding, mice in the HFD + ELA-11 group received intraperitoneal injections of ELA-11 (1 mg/kg) every 3 days for a total of 19 injections. Mice were sacrificed at 20 weeks of age (Fig. 4A).
To evaluate the therapeutic potential of mPEG@ELA-11 NPs in vivo, a series of experiments were conducted using ApoE^-/- mice fed an HFD for 3 months to induce AS. The mice were randomly assigned to 4 groups (n = 6): a negative control group fed an NCD, an HFD group treated with PBS (HFD + PBS), an HFD group treated with free ELA-11 (HFD + ELA-11), and an HFD group treated with mPEG@ELA-11 NPs (HFD + mPEG@ELA-11). The administration route, frequency, and dosage were the same as described above.
Male ApoE^-/- mice (26 to 31 g, 8 weeks old) were obtained from GemPharmatech Co., Ltd. and housed under specific pathogen-free conditions. Mice were randomly allocated into 4 groups (n = 6/group): NCD, HFD + PBS, HFD + ELA-11, and HFD + mPEG@ELA-11. The HFD (Research Diets D12079B) consisted of 21% fat and 0.21% cholesterol. Drug treatments (1 mg/kg) were administered intraperitoneally every 3 days for 8 weeks, beginning at week 13. All animal procedures were approved by the institutional animal care committee.

[10] = n = 6, P < 0.05, the words describe the HFD group, i.e. treated groups lower

Compound: O=C(O)CCCc1ccccc1 [4-PBA, 4-phenylbutyric acid]
- foam cell formation (Oil Red O), rescue experiment (RAW264.7 macrophages [1]; ox-LDL 50 μg/ml 48 h, cotreatment, P < 0.0001 vs ox-LDL group): comparable

Compound: CSCC[C@H](NC(=O)[C@@H](N)CS)C(=O)N1CCC[C@H]1C(=O)N[C@@H](CC(C)C)C(=O)N[C@@H](Cc1cnc[nH]1)C(=O)N[C@@H](CO)C(=O)N[C@@H](CCCNC(=N)N)C(=O)N[C@H](C(=O)N1CCC[C@H]1C(=O)N[C@@H](Cc1ccccc1)C(=O)N1CCC[C@H]1C(=O)O)C(C)C [ELA-11]
- cytotoxicity (cell viability assay) (RAW264.7 macrophages [2]): no significant cytotoxicity
- histopathological changes in major organs (heart, liver, spleen, lungs, and kidneys) (ApoE^-/- mice [3]): No significant histopathological changes
- tissue morphology of heart, liver, spleen, lungs, and kidneys (H&E), long-term toxicity (ApoE^-/- mice [3]): no appreciable changes in tissue morphology
- changes in body weight (ApoE^-/- mice [3]): No significant histopathological changes in any of the organs or abnormal changes in body weight were observed

Compound: O=C(Oc1coc(CSc2ncccn2)cc1=O)c1ccc([N+](=O)[O-])cc1 [ML221]
- cytotoxicity (cell viability assay) (RAW264.7 macrophages [2]): no significant cytotoxicity
- effect of co-treatment on the inhibition of AKT signaling by ELA-11 (AKT phosphorylation): attenuated
- effect of co-treatment on the protective (foam cell inhibiting) effect of ELA-11 (RAW264.7 macrophages [1]): significantly attenuated
- effect of co-treatment on the suppression of ER stress markers by ELA-11 [4]: partially reverse

Compound: O=C(O)c1ccc(/C=C/S(=O)(=O)Cc2ccc(Cl)cc2)cc1 [Recilisib]
- effect of co-treatment on the protective (foam cell inhibiting) effect of ELA-11 (RAW264.7 macrophages [1]): reversed
- effect of co-treatment on the suppression of ER stress markers by ELA-11 [4]: lost its inhibitory effect

Compound: Tunicamycin
- cytotoxicity (cell viability assay) (RAW264.7 macrophages [2]; CCK-8, ox-LDL-induced Raw264.7 macrophages, concentrations employed in the study, 24 and 48 hours, n=4, p > 0.05 (Fig. S1)): no significant cytotoxicity
- effect of co-treatment on the inhibition of AKT signaling by ELA-11 (AKT phosphorylation): maintained its inhibitory effect
- effect of co-treatment on the protective (foam cell inhibiting) effect of ELA-11 (RAW264.7 macrophages [1]): significantly attenuated
- effect of co-treatment on the suppression of ER stress markers by ELA-11 [4]: diminished

Compound: methoxy polyethylene glycol@Elabela-11 [mPEG@ELA-11]
- size (TEM) ([5]; dehydrated NPs): ~ 25 nm
- hydrodynamic diameter (DLS) ([5]; in PBS): ~ 35 nm
- histopathological changes in major organs (heart, liver, spleen, lungs, and kidneys) (ApoE^-/- mice [3]): No significant histopathological changes
- tissue morphology of heart, liver, spleen, lungs, and kidneys (H&E), long-term toxicity (ApoE^-/- mice [3]): no appreciable changes in tissue morphology
- changes in body weight (ApoE^-/- mice [3]): No significant histopathological changes in any of the organs or abnormal changes in body weight were observed
- hydrodynamic diameter, colloidal stability ([6]; 1640 culture medium, day 1): 44 ± 4.53 nm
- hydrodynamic diameter, colloidal stability ([6]; 1640 culture medium, day 5): 50 ± 2.98 nm
- hydrodynamic diameter, colloidal stability ([6]; PBS, day 1): 36 ± 2.12 nm
- hydrodynamic diameter, colloidal stability ([6]; PBS, day 5): 42 ± 3.36 nm
- hydrodynamic diameter, colloidal stability ([6]; serum, day 1): 43 ± 3.01 nm
- hydrodynamic diameter, colloidal stability ([6]; serum, day 5): 49 ± 3.49 nm
- IL-1β levels in blood serum (ApoE^-/- mice [7]; HFD, among the groups, n = 6): no significant differences
- IL-6 in blood serum compared to the HFD group (ApoE^-/- mice [7]; HFD, n = 6, P < 0.05): significantly lower
- TNF-α in blood serum compared to the HFD group (ApoE^-/- mice [7]; HFD, n = 6, P < 0.05): significantly lower
- LDL-C: HFD group compared to the treatment group (ApoE^-/- mice [7]; [10]): significantly higher
- total cholesterol: HFD group compared to the treatment group (ApoE^-/- mice [7]; [10]): significantly higher
- triglycerides: HFD group compared to the treatment group (ApoE^-/- mice [7]; [10]): significantly higher
- release of ELA-11 ([8]; pH 5.5, after 48 h): 91.2%
- release of ELA-11 ([8]; pH 6.5, after 48 h): 74.1%
- release of ELA-11 ([8]; pH 7.4, after 48 h): 38.7%
- necrotic core size in aortic root sections, compared to free ELA-11 (ApoE^-/- mice [9]; 1 mg/kg i.p. every 3 days, H&E, n = 6, P < 0.05): more substantial decrease
- overall plaque area in aortic root sections, compared to free ELA-11 (ApoE^-/- mice [9]; 1 mg/kg i.p. every 3 days, Oil Red O, n = 6, P < 0.001): more substantial decrease
- collagen content within the plaques (Masson's trichrome, aortic root) (ApoE^-/- mice [9]; 1 mg/kg i.p. every 3 days, n = 6, P < 0.0001, no significant difference between the 2 treatment groups): increased collagen content
- atherosclerotic plaque area of the entire aorta (Oil Red O), compared to free ELA-11 (ApoE^-/- mice [9]; 1 mg/kg i.p. every 3 days, n = 6, P < 0.001): greater reduction
- integrity of the vascular endothelium (CD31 immunofluorescence) (ApoE^-/- mice [9]; n = 6, P < 0.001, P < 0.0001): more effective than free ELA-11
- smooth muscle cell proliferation in the plaque area (α-SMA immunofluorescence) (ApoE^-/- mice [9]; vs ELA-11 and HFD + PBS group, n = 6, P < 0.05, P < 0.01): significantly inhibited smooth muscle cell proliferation
